Data published in US10556860B2, “hTERT modulators and methods of use” (Arizona Board of Regents on Behalf of the University of …, priority 2015, dated 2020).

Assays:
[1] = test system: BCL2 mRNA; assay: qPCR of BCL2 mRNA in MCF7 cells; format: cell-based, human; settings: 72 h
Procedure: (§1) qPCR. MCF7 and melanoma cells were treated with GTC365 and BRACO-19 for 72 h. Total RNA was extracted using an RNeasy mini-prep kit (Qiagen) and quantitated by measuring absorbance at 260 nm. cDNA was synthesized using a Takara PrimeScript™ RT Reagent Kit with gDNA eraser and then used as a template for qPCR. The qPCR was performed using Kapa Probe Fast qPCR Master Mix with ABI Taqman probes of hTERT (Hs00972656_m1), BCL2 (HS00608023_m1, FAM-labeled) or MYC (Hs00153408_m1), and GAPDH (Hs02758991_g1, VIC-labeled). The Ct values were measured by running Rotor-Gene Q, and the relative quantity of hTERT, BCL2, and MYC mRNA was obtained compared to GAPDH as an internal control.
(§2) BCL2 is a downstream molecule to hTERT such that BCL2 expression is activated by hTERT to repress apoptosis. To further define the effect of GTC365 on the transcription of hTERT, the relative mRNA levels of MYC and BCL2 were determined by quantitative PCR analysis in MCF7 cells after treatment with GTC365 for 72 h. […] A series of GTC260 analogs were synthesized and their effect on hTERT gene expression in MCF7A and U87 cells determined (FIG. 7). […] Therefore, GTC365 directly repressed the transcription of hTERT and then led to a downstream decrease of BCL2 expression.

[2] = test system: MYC mRNA; assay: qPCR of MYC mRNA in MCF7 cells; format: cell-based, human; settings: 72 h
Procedure: as §1, §2

SMILES: Cc1cc(NC(=O)NC(=O)c2ccccc2NC(=O)C(C)N)ccc1Oc1ncc(Br)cn1 (centres unmarked) [GTC260]
- effect on BCL2 mRNA level [1]: direct repression of hTERT transcription and the downstream molecule BCL2
- effect on MYC mRNA level [2]: no effect
